# Measurements as given in the supplement of paper PMC10307832.
# Compound: O=C(O)C(Cc1ccccc1[N+](=O)[O-])=NNc1nc(-c2ccc(Cl)c(Cl)c2)cs1 (mixture of isomers) [4EGI-1] + Nc1ncn([C@H]2C[C@H](O)[C@@H](CO)O2)c(=O)n1 [Decitabine] (partner 2 µM)
# Assay: relative viability (nuclei count vs DMSO), 5 days (fraction); higher = more cells survive
# Details: first compound 50 µM
# How it was run: (§1)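 Dosing by pin tool came one day after lung cancer cell lines were seeded in 1536-well plates, using either one drug or a fixed anchor-drug dose plus five library-drug doses (not always all listed) in √10 steps. After 5 days, nuclei were counted on 4× images. Relative viability is treated-well nuclei count divided by vehicle-well nuclei count, and values are medians of duplicate plates.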
row,Cell Line,relative viability
1,HCC-827,0.219
2,HOP-62,0.183
3,LC-2-ad,0.444
4,NCI-H520,0.25
5,NCI-H522,0.63
6,NCI-H661,0.341
7,NCI-H1648,0.416
8,NCI-H1650,0.293
9,NCI-H2009,0.317
10,NCI-H2023,0.0871
11,NCI-H2342,0.731
12,SK-LU-1,0.367
13,SK-MES-1,0.241
14,SW 900,0.283
15,SW 1573,0.112
16,UMC-11,0.419

# Compound: CN1CCN(CC1)C2=CC(=C(C=C2)NC3=NC=C4C(=N3)N(C5=CC=CC=C5C(=O)N4C)C)OC [XMD8-85] + O=C(c1cc(Cc2n[nH]c(=O)c3ccccc23)ccc1F)N1CCN(C(=O)C2CC2)CC1 [Olaparib] (partner 8 µM)
# Assay: as above
# Details: first compound 0.08 µM
# How it was run: as §1
row,Cell Line,relative viability
1,201T,0.889
2,A549,0.192
3,A-427,0.751
4,ABC-1,0.919
5,BEN,0.952
6,CAL-12T,0.704
7,COR-L23,0.369
8,COR-L 105,0.7
9,Calu-6,0.621
10,ChaGo-K-1,0.409
11,EBC-1,0.649
12,EKVX,0.756
13,EMC-BAC-2,0.498
14,EPLC-272H,0.853
15,H3255,0.581
16,HARA,1.28
17,HCC-15,0.745
18,HCC-44,0.991
19,HCC-78,0.916
20,HCC-366,0.231

row,Cell Line,relative viability
1,HCC-827,0.67
2,HOP-62,0.136
3,IA-LM,0.862
4,LC-2-ad,0.771
5,NCI-H520,0.343
6,NCI-H522,0.699
7,NCI-H661,0.798
8,NCI-H1299,1.02
9,NCI-H1648,0.857
10,NCI-H1650,0.877
11,NCI-H1703,0.308
12,NCI-H2009,0.776
13,NCI-H2023,0.42
14,NCI-H2228,0.629
15,NCI-H2342,0.421
16,SK-LU-1,0.482
17,SK-MES-1,0.819
18,SW 900,0.824
19,SW 1573,0.496
20,UMC-11,0.475

# Same assay, conditions: first compound 0.253 µM
row,Cell Line,relative viability
1,201T,0.811
2,A549,0.371
3,A-427,0.781
4,ABC-1,0.864
5,BEN,1.05
6,CAL-12T,0.721
7,COR-L23,0.319
8,Calu-6,0.574
9,ChaGo-K-1,0.43
10,EBC-1,0.693
11,EKVX,0.83
12,EMC-BAC-2,0.465
13,EPLC-272H,0.579
14,H3255,0.603
15,HARA,0.581
16,HCC-15,0.67
17,HCC-44,0.955
18,HCC-78,0.843
19,HCC-366,0.358

row,Cell Line,relative viability
1,HCC-827,0.714
2,HOP-62,0.55
3,IA-LM,0.885
4,LC-2-ad,0.687
5,NCI-H520,0.366
6,NCI-H522,0.632
7,NCI-H661,0.795
8,NCI-H1299,1
9,NCI-H1648,1.14
10,NCI-H1650,0.91
11,NCI-H2009,0.748
12,NCI-H2023,0.452
13,NCI-H2228,0.338
14,NCI-H2342,0.466
15,SK-LU-1,0.509
16,SK-MES-1,0.683
17,SW 900,0.705
18,SW 1573,0.48
19,UMC-11,0.358

# Same assay, conditions: first compound 0.8 µM
row,Cell Line,relative viability
1,201T,0.886
2,A549,0.306
3,A-427,0.864
4,ABC-1,0.781
5,BEN,0.947
6,CAL-12T,0.776
7,COR-L23,0.421
8,COR-L 105,0.692
9,Calu-6,0.596
10,ChaGo-K-1,0.409
11,EBC-1,0.679
12,EKVX,0.998
13,EMC-BAC-2,0.487
14,EPLC-272H,0.747
15,H3255,0.512
16,HARA,0.698
17,HCC-15,0.7
18,HCC-44,0.946
19,HCC-78,0.99

row,Cell Line,relative viability
1,HCC-366,0.385
2,HCC-827,0.684
3,HOP-62,0.384
4,IA-LM,0.836
5,LC-2-ad,0.701
6,NCI-H520,0.293
7,NCI-H522,0.615
8,NCI-H661,0.768
9,NCI-H1299,0.97
10,NCI-H1648,0.919
11,NCI-H1650,0.951
12,NCI-H1703,0.427
13,NCI-H2009,0.779
14,NCI-H2023,0.508
15,NCI-H2228,0.649
16,NCI-H2342,0.359
17,SW 900,1.15
18,SW 1573,0.546
19,UMC-11,0.389

# Same assay, conditions: first compound 2.53 µM
row,Cell Line,relative viability
1,201T,0.866
2,A549,0.234
3,A-427,0.785
4,ABC-1,0.764
5,BEN,0.887
6,CAL-12T,0.628
7,COR-L23,0.302
8,COR-L 105,0.58
9,Calu-6,0.558
10,ChaGo-K-1,0.433
11,EBC-1,0.567
12,EKVX,0.898
13,EMC-BAC-2,0.477
14,EPLC-272H,0.458
15,H3255,0.504
16,HARA,0.387
17,HCC-15,0.699
18,HCC-44,0.996
19,HCC-78,0.814

row,Cell Line,relative viability
1,HCC-827,0.739
2,HOP-62,0.287
3,IA-LM,1.07
4,LC-2-ad,0.581
5,NCI-H520,0.305
6,NCI-H522,0.537
7,NCI-H661,0.854
8,NCI-H1299,0.892
9,NCI-H1648,0.482
10,NCI-H1650,0.699
11,NCI-H1703,0.42
12,NCI-H2009,0.544
13,NCI-H2023,0.487
14,NCI-H2228,0.655
15,NCI-H2342,0.487
16,SK-LU-1,0.417
17,SK-MES-1,0.707
18,SW 900,0.786
19,UMC-11,0.325

# Same assay, conditions: first compound 8 µM
row,Cell Line,relative viability
1,201T,0.73
2,A549,0.227
3,A-427,0.57
4,ABC-1,0.795
5,BEN,0.613
6,CAL-12T,0.583
7,COR-L23,0.236
8,COR-L 105,0.455
9,Calu-6,0.395
10,ChaGo-K-1,0.347
11,EBC-1,0.346
12,EKVX,0.901
13,EMC-BAC-2,0.417
14,EPLC-272H,0.387
15,H3255,0.369
16,HARA,0.399
17,HCC-15,0.64
18,HCC-44,0.849
19,HCC-78,0.775
20,HCC-366,0.242

row,Cell Line,relative viability
1,HCC-827,0.701
2,HOP-62,0.231
3,IA-LM,0.207
4,LC-2-ad,0.415
5,NCI-H520,0.236
6,NCI-H522,0.568
7,NCI-H661,0.525
8,NCI-H1299,0.578
9,NCI-H1648,0.861
10,NCI-H1650,0.303
11,NCI-H1703,0.312
12,NCI-H2009,0.268
13,NCI-H2023,0.285
14,NCI-H2228,0.331
15,NCI-H2342,0.408
16,SK-LU-1,0.391
17,SK-MES-1,0.408
18,SW 900,0.376
19,SW 1573,0.341
20,UMC-11,0.231

# Compound: O=C(O)C(Cc1ccccc1[N+](=O)[O-])=NNc1nc(-c2ccc(Cl)c(Cl)c2)cs1 (mixture of isomers) [4EGI-1] + NC(=O)Nc1cc(-c2cccc(F)c2)sc1C(=O)N[C@H]1CCCNC1 [AZD7762] (partner 0.2 µM)
# Assay: as above
# Details: first compound 0.5 µM
# How it was run: as §1
row,Cell Line,relative viability
1,201T,0.797
2,A-427,0.819
3,ABC-1,0.758
4,BEN,0.76
5,CAL-12T,0.643
6,ChaGo-K-1,0.875
7,EKVX,0.812
8,EMC-BAC-2,1.36
9,EPLC-272H,0.264
10,H3255,1.02
11,HARA,0.397
12,HCC-15,1.21
13,HCC-44,1.02
14,HCC-78,0.617
15,HCC-366,0.33
16,HCC-827,0.255
17,HOP-62,0.878
18,LC-2-ad,0.855
19,NCI-H522,0.947
20,NCI-H1648,0.662
21,NCI-H1703,0.121
22,NCI-H2342,0.441
23,SW 900,0.833

# Same assay, conditions: first compound 1.581 µM
row,Cell Line,relative viability
1,201T,0.514
2,BEN,0.657
3,ChaGo-K-1,0.87
4,H3255,0.793
5,HARA,0.48
6,HCC-15,1.12
7,HCC-44,0.984
8,HCC-366,0.23
9,HCC-827,0.217
10,HOP-62,0.408
11,LC-2-ad,0.866
12,NCI-H522,0.71
13,NCI-H1648,0.674
14,NCI-H1703,0.131
15,NCI-H2342,0.477
16,SW 900,0.583

# Same assay, conditions: first compound 5 µM
row,Cell Line,relative viability
1,201T,0.736
2,A-427,0.715
3,ABC-1,0.774
4,BEN,0.689
5,CAL-12T,0.649
6,ChaGo-K-1,0.876
7,EKVX,0.649
8,EMC-BAC-2,1.17
9,EPLC-272H,0.239
10,H3255,0.981
11,HARA,0.241
12,HCC-15,1.26
13,HCC-44,0.976
14,HCC-78,0.651
15,HCC-366,0.293
16,HCC-827,0.211
17,HOP-62,0.54
18,LC-2-ad,0.917
19,NCI-H522,0.985
20,NCI-H1648,0.707
21,NCI-H1703,0.147
22,NCI-H2342,0.501
23,SW 900,0.574

# Same assay, conditions: first compound 15.81 µM
row,Cell Line,relative viability
1,201T,0.619
2,A-427,0.513
3,ABC-1,0.506
4,BEN,0.593
5,CAL-12T,0.518
6,ChaGo-K-1,0.897
7,EKVX,0.546
8,EMC-BAC-2,1
9,EPLC-272H,0.151
10,H3255,0.554
11,HARA,0.195
12,HCC-15,1.17
13,HCC-44,0.922
14,HCC-78,0.451
15,HCC-366,0.174
16,HOP-62,0.454
17,LC-2-ad,0.3
18,NCI-H522,0.874
19,NCI-H1648,0.602
20,NCI-H1703,0.12
21,NCI-H2342,0.559
22,SW 900,0.377

# Same assay, conditions: first compound 50 µM
row,Cell Line,relative viability
1,201T,0.495
2,A-427,0.231
3,ABC-1,0.516
4,BEN,0.382
5,CAL-12T,0.366
6,ChaGo-K-1,0.465
7,EKVX,0.656
8,EMC-BAC-2,0.599
9,EPLC-272H,0.0667
10,H3255,0.53
11,HARA,0.161
12,HCC-15,1.28
13,HCC-44,0.799
14,HCC-78,0.512
15,HCC-366,0.0904
16,HCC-827,0.139
17,HOP-62,0.101
18,LC-2-ad,0.208
19,NCI-H522,0.783
20,NCI-H1648,0.517
21,NCI-H1703,0.119
22,NCI-H2342,0.308
23,SW 900,0.173
